Results published in patent US10258664B2, “Methods and compositions for treating pain” (MannKind Corporation, priority 2011, dated 2019).
Residues, ends and D or L forms follow the SMILES beside them.

Experiments:
[1] = tested on: mice; assay: Conditioned place preference (CPP) study; conditions: 0.125 mg insufflated; FIG. 5
Method: In a conditioned place preference (CPP) study to evaluate the “reward” or “aversive” value of the drug, mice are conditioned to associate one compartment of the apparatus with treatment. […] The experiments were conducted similarly as described in the previous examples. […] To test placebo effect, additional mice were insufflated with FDKP (TECHNOSPHERE®) powder (0.5 mg) without any peptide.

[2] = tested on: mice; assay: Spontaneous locomotion and respiration in the comprehensive laboratory animal monitoring system (CLAMS); conditions: 0.125 mg by insufflation; for ambulation (spontaneous locomotion): FIG. 4A; for respiration rate: FIG. 4B
[3] = tested on: patient; assay: Patient examples: inhaled analgesic composition, patient-reported pain; format: in vivo, human
Method: patient one reports headache pain to their doctor. […] The analgesic composition is 15% peptide. The analgesic composition is administered with a reusable inhaler calibrated to provide a dose of 5 mg/kg of body weight.
A patient undergoing chemotherapy reports stomach pain to their doctor. […] The analgesic composition is 15% peptide. The analgesic composition is administered with a reusable inhaler calibrated to provide a dose of 5 mg/kg of body weight.
(§1) A patient reports back pain to their doctor. Following examination of the patient, the doctor prescribes an analgesic composition containing a FDKP/Trp-(D)Pro-Ser-Phe-NH2 (SEQ ID NO: 3, Compound 3), composition prepared as described in the previous Examples. The analgesic composition is 15% peptide. The analgesic composition is administered with a reusable inhaler calibrated to provide a dose of 4 mg/kg of body weight.
as §1, with “dental” for “back”, “an Na2FDKP/Ac-His-(D)Phe-Arg-(D)Trp-Gly-NH2” for “a FDKP/Trp-(D)Pro-Ser-Phe-NH2”, “6,” for “3,”, “6)” for “3),”, “10%” for “15%”, “7” for “4”
A patient reports pain due to multiple sclerosis to their doctor. […] The analgesic composition is 20% peptide. The analgesic composition is administered with a reusable inhaler calibrated to provide a dose of 3 mg/kg of body weight.
patient two reports muscle pain to their doctor. Following examination of the patient, the doctor prescribes an analgesic composition containing a FDKP/Ac-His-(D)Phe-Arg-(D)Trp-Gly-NH2 (SEQ ID NO: 6, Compound 6) composition prepared as described in the previous Examples. The analgesic composition is 15% peptide. The analgesic composition is administered with a reusable inhaler calibrated to provide a dose of 5 mg/kg of body weight.
A patient reports pain from a broken arm to their doctor. Following examination of the patient, the doctor prescribes an analgesic composition containing a Na2FDKP/Trp-(D)Ser-Ser-Phe-NH2 (SEQ ID NO: 4, Compound 4) composition prepared as described in the previous Examples. The analgesic composition is 25% peptide. The analgesic composition is administered with a reusable inhaler calibrated to provide a dose of 2 mg/kg of body weight.
A patient reports their low pain threshold to their dentist. Following examination of the patient and prior to the dental procedure, the dentist administers an analgesic composition containing a FDKP/Ac-Nle-Gln-His-(D)Phe-Arg-(D)Trp-Gly-NH2 (SEQ ID NO:7, Compound 7) composition prepared as described in the previous Examples. The analgesic composition is 10% peptide. The analgesic composition is administered with a single-use inhaler designed to provide a dose of 5 mg/kg of body weight.

[4] = tested on: mice; assay: 55° C. warm-water tail withdrawal (tail-flick) assay; format: in vivo, mouse; conditions: FIG. 1; for plateau of antinociceptive effect: insufflated
Method: Antinociceptive effect was tested in a mouse tail-withdrawal (“tail-flick,” Aldrich et al. 2009) assay in which the tail of a restrained mouse is exposed to water at 55° C. […] Durations shorter than the maximum are reported as a percentage of the time limit. This tail-flick test (also known as the 55° C. warm-water tail withdrawal assay) is an industry acceptable, nonclinical model for assessing the efficacy of analgesics in treating acute pain. To test placebo effect, FDKP (TECHNOSPHERE®) powder (0.5 mg) without any peptide was used in the study. Each animal is tested for baseline tail-withdrawal latency prior to drug administration. Latency to withdraw the tail was subsequently measured in 10 minutes post-drug administration intervals as indicated. A maximum response time of 15 seconds was utilized to prevent tissue damage. Data reported as percent antinociception, as calculated by the following equation: % antinociception is equal to 100 times (test latency minus baseline latency) divided by (15 minus baseline latency).
The tetrapetide, (D)Phe-(D)Phe-(D)Nle-(D)Arg-NH2 (SEQ ID NO: 2, Compound 2) was administered to mice by intraperitoneal (i.p.) injection (3 mg/kg) in a saline solution, and by pulmonary insufflation of a dry powder formulation containing FDKP at various doses, 0.25 mg, 0.125 mg, 0.013 mg, 1.25 μg and 0.13 μg. The tail-flick test was performed for a period of time after administration. […]

## CN1CC[C@]23c4c5ccc(O)c4O[C@H]2[C@@H](O)C=C[C@H]3[C@H]1C5 [morphine, reference compound]
[1]
  place preference for the drug-paired compartment: strong preference for the associated compartment
[2]
  ambulation (spontaneous locomotion): locomotor hyperactivity
  respiration rate: depress the rate of respiration

## Ac-His-(D)Phe-Arg-(D)Trp-Gly-NH2 (HXRXG; HELM PEPTIDE1{[ac].H.[dF].R.[dW].G.[am]}$$$$V2.0; SMILES CC(=O)N[C@@H](Cc1c[nH]cn1)C(=O)N[C@H](Cc1ccccc1)C(=O)N[C@@H](CCCNC(=N)N)C(=O)N[C@H](Cc1c[nH]c2ccccc12)C(=O)NCC(N)=O) [Compound 6]
[3]; FDKP composition, 15% peptide, inhaled 5 mg/kg, person two
  patient-reported muscle pain: elimination of their muscle pain
[3]; Na2FDKP composition, 10% peptide, inhaled 7 mg/kg, person
  patient-reported dental pain: elimination of their dental pain

## NC(=O)[C@H](Cc1ccccc1)NC(=O)[C@H](CO)NC(=O)[C@@H](CO)NC(=O)[C@@H](N)Cc1c[nH]c2ccccc12 [Compound 4, Trp-(D)Ser-Ser-Phe-NH2] (HELM PEPTIDE1{W.[dS].S.F.[am]}$$$$V2.0)
[3]; Na2FDKP composition, 25% peptide, inhaled 2 mg/kg, person
  patient-reported pain from a broken arm: elimination of their pain

## CCCC[C@@H](NC(=O)[C@@H](Cc1ccccc1)NC(=O)[C@H](N)Cc1ccccc1)C(=O)N[C@H](CCCNC(=N)N)C(N)=O [Compound 2, (D)Phe-(D)Phe-(D)Nle-(D)Arg-NH2] (HELM PEPTIDE1{[dF].[dF].[CCCC[C@@H](N[*:1])C(=O)[*:2]].[dR].[am]}$$$$V2.0; N-terminus assumed)
[1]
  place preference for the drug-paired compartment: no preference for the paired compartment
[4]; all doses: i.p. 3 mg/kg in saline and insufflated FDKP dry powder 0.25 mg to 0.13 μg
  antinociception effect versus time: rapidly provided near-complete antinociception
[4]; i.p. injection 3 mg/kg in saline
  time course of antinociceptive effect: decayed almost linearly with time
[4]; insufflated FDKP dry powder 0.25 mg to 0.13 μg
  dose response of antinociception: clear dose response was evident
[4]; 0.125 mg dose
  plateau of antinociceptive effect: approximately 30 minutes
[4]; 0.25 mg dose
  plateau of antinociceptive effect: 50 to 55 min
[3]; FDKP composition, 15% peptide, inhaled 5 mg/kg, person one
  patient-reported headache pain: elimination of their headache pain
[3]; Na2FDKP composition, 20% peptide, inhaled 3 mg/kg, person
  patient-reported pain due to multiple sclerosis: elimination of their multiple sclerosis pain
[2]
  ambulation (spontaneous locomotion): comparable to animals receiving placebo
  respiration rate: comparable to animals receiving placebo

## Ac-Nle-Gln-His-(D)Phe-Arg-(D)Trp-Gly-NH2 [Compound 7]
[3]; FDKP composition, 10% peptide, single-use inhaler 5 mg/kg, given before procedure, person
  patient-reported pain during dental procedure: no pain during the dental procedure

## NC(=O)[C@H](Cc1ccccc1)NC(=O)[C@H](CO)NC(=O)[C@H]1CCCN1C(=O)[C@@H](N)Cc1c[nH]c2ccccc12 [Compound 3, Trp-(D)Pro-Ser-Phe-NH2] (HELM PEPTIDE1{W.[dP].S.F.[am]}$$$$V2.0)
[3]; FDKP composition, 15% peptide, inhaled 4 mg/kg, person
  patient-reported back pain: elimination of their back pain

## CC[C@@H](C)[C@@H](NC(=O)[C@@H](Cc1ccccc1)NC(=O)[C@H](N)Cc1ccccc1)C(=O)N[C@H](CCCNC(=N)N)C(N)=O [Compound 1, (D)Phe-(D)Phe-(D)Ile-(D)Arg-NH2]
[1]
  place preference for the drug-paired compartment: no preference for the paired compartment
[2]
  ambulation (spontaneous locomotion): comparable to animals receiving placebo
  respiration rate: comparable to animals receiving placebo
